Results on five molecules are retold here after patent US20210267973A1, “COMBINATION OF A TYPE II PROTEIN ARGININE […] INHIBITOR AND AN ICOS BINDING PROTEIN TO TREAT CANCER” (GLAXOSMITHKLINE INTELLECTUAL PROPERTY DEVELOPMENT LIMITED, priority 2018, published 2021).

Series [1] concerns 19 enzymes on the methyltransferase selectivity panel (Type I and Type II PRMTs and lysine methyltransferases). The series is described as follows: methyltransferase selectivity panel. The format is biochemical. To be noted: PRMT5 tool compounds. From the text:
FIG. 6: Phylogenetic tree highlighting the methyltransferases tested in the selectivity panel. […] PRMT9 is shown for relationship purposes only within the family tree and was not evaluated in the panel. Figure adapted from Richon V M. et al.
PRMT9/FBXO11, which is the other Type II PRMT and the only PRMT to lack the THW loop, was not included due to the lack of a functional enzyme assay.

The subject of series [2] is SKBR3, MDA-MB-468, MCF-7, ZR-75-1 and Z-138 cells. The series is described as follows: longer-term growth/death assay in breast and MCL cell lines. Particulars: SKBR3, MDA-MB-468 and MCF-7 cells, 7-10 days. It is filed as cell-based.
The test system of series [3] is SDMA, MDM4 splicing, p53 in GBM and lymphoma cell lines. The series can be described thus: SDMA, MDM4 splicing and p53 in GBM and lymphoma cell lines. Particulars: 1 μM. It is filed as cell-based. How it is done: Next, effects on cellular methylation and the p53 pathway were evaluated in GBM cells treated with a PRMT5 inhibitor by measuring SDMA, p53 and p21 protein levels and MDM4 splicing (FIG. 27). […] Alternative MDM4 splicing was detected in all cell lines but SF539 which are p53 mutant and have low basal expression of the long MDM4 isoform (FIG. 27, panel A). p53 levels increased in all cell lines, while the induction of p21 protein was observed only in cell lines that have wild-type p53 (Z138 (MCL), U87-MG and A172 (GBM)). […] The role of p53 in the response of GBM cell lines to PRMT5 inhibition will be further tested in future studies. Additionally, the effects of PRMT5 inhibition on cell cycle and neural differentiation in GBM models are being explored.

Series [4] relates to cellular splicing in lymphoma cell lines. The series can be described thus: RNA-sequencing splicing analysis in lymphoma cell lines. It is filed as cell-based. The method, then:
A. Mechanisms of regulation of cellular splicing (adapted from Bezzi M. et al.). B. Analysis of intron expression in lymphoma lines treated with 0.1 or 0.5 μM Compound B.
A. Quantification of isoform switches in 4 lymphoma cell lines treated with Compound B (0.1 and 0.5 μM) for 2 and 4 days. B. Overlap of isoform switches in 4 lymphoma lines. C. List of genes that undergo alternative splicing in all 4 lymphoma lines (overlap of 4 cell lines).
PRMT5 methylates histones and proteins involved in RNA processing and therefore PRMT5 inhibition is expected to have a profound effect on cellular mRNA homeostasis. To further decipher cellular mechanisms that are regulated by PRMT5 and contribute to the cellular response to PRMT5 inhibitors, global gene expression changes were evaluated in lymphoma models sensitive to PRMT5 inhibition. To elucidate gene expression changes that occur in lymphoma cell lines upon PRMT5 inhibitor treatment, 4 sensitive lymphoma lines (2 MCL lines-Z138 and Granta-519 and 2 DLBCL lines-DOHH2 and RL) were profiled by RNA-sequencing.
Since PRMT5 methylates spliceosome subunits and PRMT5 inhibition attenuates arginine methylation of a number of proteins involved in splicing, the effect of PRMT5 inhibin on cellular splicing was studied. The changes in RNA splicing were assessed in the lymphoma RNA-seq dataset described above. […]

For series [5], the system named is MDM4 splicing, SDMA, p53 and p21 in MCL lines. The series can be described thus: MDM4 splicing (RT-PCR) and SDMA/p53/p21 Western in MCL lines. To be noted: Z138 cells. The format is cell-based. How it is done:
To understand whether p53 activation is associated with MDM4 isoform switching, MDM4 alternative splicing was analyzed. […] The role of the p53 pathway in the biology of the response of p53 wild-type MCL cells to PRMT5 inhibition is being evaluated.

Series [6] relates to panel of cancer cell lines. It is filed as cell-based. To be noted: most sensitive lymphoma lines (MCL and DLBCL).
Text: (§1) DLBCL-diffuse large B-cell lymphoma, GBM-glioblastoma, MCL-mantle cell lymphoma, […]
as §1
The cell lines were selected to represent tumor types where PRMT5 activity has been reported to regulate key pathways and/or cell growth and survival (such as lymphoma and MCL, glioma, breast and lung cancer lines).

A further series concerns MCL cell lines. The series is described as follows: 6-day growth/death assay in a panel of MCL lines. It is filed as cell-based. Particulars: Mino, Jeko-1. From the text: FIG. 18: Activity of PRMT5 inhibitor and ibrutinib as single agents and in combination in MCL cell lines. […] C.
• The strongest mechanistic link currently described between PRMT5 and cancer is in MCL. PRMT5 is frequently overexpressed in MCL and is highly expressed in the nuclear compartment where it increases levels of histone methylation and silences a subset of tumor suppressor genes. Importantly, cyclin D1, the oncogene that is translocated in the vast majority of MCL patients, associates with PRMT5 and through a cdk4-dependent mechanism increases PRMT5 activity. PRMT5 mediates the suppression of key genes that negatively regulate DNA replication allowing for cyclin D1-dependent neoplastic growth. PRMT5 knockdown inhibits cyclin D1-dependent cell transformation causing death of tumor cells.

The next series concerns Z-138 MCL xenograft. The series is described as follows: 21-day efficacy study in Z-138 MCL xenograft model. The format is in vivo. Particulars: all groups in all efficacy studies presented. The method, then: B. Quantified SDMA western data from tumors harvested at the end of the efficacy study (3 hours post last dose).
The test system of series [7] is xenograft models of mantle cell lymphoma. The series can be described thus: xenograft models of mantle cell lymphoma (summary statement). It is filed as in vivo. From the text:
[…] • The strongest mechanistic link currently described between PRMT5 and cancer is in MCL. PRMT5 is frequently overexpressed in MCL and is highly expressed in the nuclear compartment where it increases levels of histone methylation and silences a subset of tumor suppressor genes. […] The vast majority of SDMA containing proteins were factors that are involved in cellular splicing and RNA processing (SmB, Lsm4, hnRNPH1 and others), transcription (FUBP1) and translation highlighting the role of PRMT5 as an important regulator of cellular RNA homeostasis.

Another series concerns MDA-MB-468 xenograft. The series is described as follows: MDA-MB-468 triple negative breast cancer xenograft model. It is filed as in vivo. To be noted: 100 mg/kg BID. How it is done: Next, the efficacy of PRMT5 inhibition was evaluated in in vivo models of breast cancer.

The structures appear in SMILES notation.

In the case of `CC(=O)N1CCC(Nc2cc(C(=O)NC[C@H](O)CN3CCc4ccccc4C3)ccn2)CC1` [Compound F], the “selectivity for PRMT5/MEP50 over the other methyltransferases” value (from here on “selectivity for PRMT5/MEP50”) in series [1] was “Selectivity for PRMT5/MEP50 over the other methyltransferases was also observed”.
Regarding `O=C(NC[C@H](O)CN1CCc2ccccc2C1)c1ccnc(NC2CCC2)c1` [Compound B], the “selectivity for PRMT5/MEP50” value in series [1] is “Selectivity for PRMT5/MEP50 over the other methyltransferases was also observed”. Also, the “nature of response upon prolonged exposure” value in [2] is “cytotoxic response”. In series [3], the MDM4 splicing result is listed as “induces alternative splicing of MDM4”, the SDMA levels result is “decreases SDMA levels” and the p53 activation result is reported as “activates p53”. Besides, the isoform switching entry in [4] (0.1 and 0.5 μM, 2 and 4 days, 4 lymphoma cell lines) is given as “induces isoform switching for a subset of genes”. Besides, in [4] (0.1 or 0.5 μM, lymphoma cell lines), the intron splicing entry is on record as “attenuates the splicing of a subset of introns”.
Turning to `O=C(NC[C@H](O)CN1CCc2ccccc2C1)c1cc(NC2COC2)ncn1` [Compound E], the “selectivity for PRMT5/MEP50” value in series [1] is listed as “Selectivity for PRMT5/MEP50 over the other methyltransferases was also observed”.
With `COc1ccc(C2=N[C@@H](c3ccc(Cl)cc3)[C@@H](c3ccc(Cl)cc3)N2C(=O)N2CCNC(=O)C2)c(OC(C)C)c1` [Nutlin-3, reference compound], in series [5] (5 μM), the “p53 and p21 expression” value was “increased”.
Take `CC(=O)N1CCC(Nc2cc(C(=O)NC[C@H](O)CN3CCc4ccccc4C3)ncn2)CC1` [Compound C]: the gIC50 entry in series [6] is “single digit”. In the series with MCL cell lines, the “sensitivity in 6-day growth/death assay” value is “only moderately sensitive”. For the same molecule, the “p53 and p21 expression” value in series [5] (200 nM) is reported as “increased”. In addition, in the series on Z-138 MCL xenograft, the body weight result is on record as “no body weight loss”. The “tumor growth inhibition (TGI)” value in series [7] is given as roughly 100%. Further, in [2], the “nature of response upon prolonged exposure” value is listed as “cytotoxic response”. Moreover, the “Maximal tumor growth inhibition (TGI)” value with MDA-MB-468 xenograft stood at 83%.
